What is called IC50 is the concentration needed to halve the response being measured. The low end stands for greater potency in that assay, the high end for weaker potency in that assay. In general, melting point refers to the temperature, or range, at which the solid turns liquid. The viability is a read-out of living cells in per cent, often relative to untreated cells.

The subject of one data set is human hepatoma G2 cells. Put plainly: Cytotoxicity assay (XTT colorimetric), Hep G2. The class given is cell-based. The note with it: Homo sapiens, HepG2; 48 h of drug exposure. A general note: Formazan colour is commonly taken as a measure of viable cells.
The test system of the next data set is rat glioma C6 cells. Put plainly: Cytotoxicity assay (XTT colorimetric), C6 cells. The class given is cell-based. The note with it: Rattus norvegicus, C6; 48 h of drug exposure.
Data set [1] concerns hepatitis B virus transfected hepatoma cell lines, HepG 2.2.15 cells. Put plainly: Cytotoxicity assay, 2.2.15 cells. As to conditions: Homo sapiens, HepG2.2.15; 48 h of drug exposure. The class given is cell-based, human.
In data set [2] the test system is transcriptional activity of hTERT. Put plainly: SEAP reporter assay of hTERT expression, PhTERT-SEAP (hTERT-BJ1). The class given is cell-based, human. The note with it: PhTERT-SEAP (hTERT-BJ1). Put shortly: (§1)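 Read-out: rate of absorbance rise at 405 nm from p-nitrophenyl phosphate (12 mM final) hydrolysis by secreted alkaline phosphatase in heat-treated (65° C, 10 min) culture medium. Drugs at varying amounts were applied for 24 h after a 24 h pre-culture at 37° C.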
A general note: A reporter such as luciferase makes a cellular process visible.

Data set [3] has the same test system. The data set is described as follows: SEAP reporter assay of hTERT expression, PhTERT-SEAP (H1299). The class given is cell-based, human. The note with it: PhTERT-SEAP(hTERT-H1299). The method in brief: as §1
A short description of data set [4]: MTT relative viability, PhTERT-SEAP (H1299) cells. The note with it: human.
A short description of data set [5]: MTT relative viability, PhTERT-SEAP (hTERT-BJ1) cells. The note with it: human; for viability at 48 h, 218 µM / viability at 48 h, 205 µM: hTERT-BJ1 cells stably transfected with PhTERT-SEAP reporter.
Setting [6] is: hTERT-BJ1 cells, stable PhTERT-SEAP reporter clone.
Where [7] appears, read: Homo sapiens, 2.1 μM, read-out: Relative SEAP activity (%).
Setting [8] is: Homo sapiens, 21 μM, read-out: Relative SEAP activity (%).
Where [9] appears, read: Homo sapiens, 218 μM, read-out: Relative SEAP activity (%).
The mark [10] stands for this setting: Homo sapiens, NCI-H1299, 2.1 μM, read-out: Relative SEAP activity (%).
[11] abbreviates: Homo sapiens, NCI-H1299, 21 μM, read-out: Relative SEAP activity (%).
Setting [12] is: Homo sapiens, NCI-H1299, 218 μM, read-out: Relative SEAP activity (%).
Where [13] appears, read: Homo sapiens, 2.0 μM, read-out: Relative SEAP activity (%).
Setting [14] is: Homo sapiens, 20 μM, read-out: Relative SEAP activity (%).
Where [15] appears, read: Homo sapiens, 205 μM, read-out: Relative SEAP activity (%).
The mark [16] stands for this setting: Homo sapiens, NCI-H1299, 2.0 μM, read-out: Relative SEAP activity (%).
Setting [17] is: Homo sapiens, NCI-H1299, 20 μM, read-out: Relative SEAP activity (%).
[18] abbreviates: Homo sapiens, NCI-H1299, 205 μM, read-out: Relative SEAP activity (%).

Where only a bound is given, the exact number is not on record here.

`CC(Cl)C(=O)Nc1ccc(NC(=O)C(C)Cl)c2c1C(=O)c1ccccc1C2=O` (centres unmarked) [VI9, 1,4-Bis(2-chloropropionamido)-9,10-anthracenedione]: the melting point was in the range of 233 to 235 °C. The compound also came in with an IC50 with human hepatoma G2 cells greater than 20 µM. The compound also registered an IC50 with rat glioma C6 cells greater than 20 µM. For the same compound, the IC50 in data set [1] was greater than 20 µM. Besides, the SEAP/vibility in data set [2] (2.3 μM) turned out to be 0.97. This compound also gave an SEAP/vibility in data set [2] (23 μM) of 1.49. The SEAP/vibility in data set [2] (238 μM) was found to be 1.68. Also, the activity at 2.3 µM in data set [2] (Homo sapiens, 2.3 μM, read-out: Relative SEAP activity (%)) worked out at 91 ± 10.8%. For the same compound, in data set [2] (Homo sapiens, 23 μM, read-out: Relative SEAP activity (%)), the activity at 23 µM was 101 ± 8.4%. The activity at 238 µM in data set [2] (Homo sapiens, 238 μM, read-out: Relative SEAP activity (%)) came out at 81 ± 8.5%. Moreover, the SEAP/vibility in data set [3] (2.3 μM) was 0.96. This compound returned an SEAP/vibility in data set [3] (23 μM) of 1.40. This compound registered an SEAP/vibility in data set [3] (238 μM) of 7.82. In data set [3] (Homo sapiens, NCI-H1299, 2.3 μM, read-out: Relative SEAP activity (%)), the activity at 2.3 µM was 106 ± 5.5%. In data set [3] (Homo sapiens, NCI-H1299, 23 μM, read-out: Relative SEAP activity (%)), the activity at 23 µM was found to be 109 ± 1%. Besides, the activity at 238 µM in data set [3] (Homo sapiens, NCI-H1299, 238 μM, read-out: Relative SEAP activity (%)) came to 85 ± 5.3%. Also, in data set [4], the viability at 48 h, 2.3 µM was 111 ± 5.5%; the viability at 48 h, 23 µM was 77 ± 3.4%; the viability at 48 h, 238 µM was determined as 11 ± 1.4%. Besides, in data set [5] (setting [6]), the viability at 48 h, 2.3 µM was 94 ± 10.4%; the viability at 48 h, 23 µM was found to be 68 ± 8.2%; the viability at 48 h, 238 µM turned out to be 48 ± 2.3%.

`O=C1c2ccccc2C(=O)c2c(NC(=O)C3CCCCC3)ccc(NC(=O)C3CCCCC3)c21` [VI17, 1,4-Bis(cyclohexaneamido)-9,10-anthracenedione] returned a melting point of 309 to 310 °C. In addition, the IC50 with human hepatoma G2 cells is greater than 20 µM. Also, in the data set with rat glioma C6 cells, the IC50 is greater than 20 µM. The same compound had an IC50 in data set [1] greater than 20 µM. Also, the SEAP/vibility in data set [2] (2.1 μM) stood at 0.64. The compound also registered an SEAP/vibility in data set [2] (21 μM) of 0.44. For the same compound, the SEAP/vibility in data set [2] (218 μM) is reported as 0.68. Further, in data set [2] (setting [7]), the activity at 2.1 µM was 65 ± 16%. Besides, the activity at 21 µM in data set [2] (setting [8]) amounted to 42 ± 24.3%. Besides, in data set [2] (setting [9]), the activity at 218 µM amounted to 56 ± 16.3%. This compound also had an SEAP/vibility in data set [3] (2.1 μM) of 1.00. For the same compound, the SEAP/vibility in data set [3] (21 μM) is 1.05. For the same compound, in data set [3] (218 μM), the SEAP/vibility is on record as 1.38. Also, the activity at 2.1 µM in data set [3] (setting [10]) was 104 ± 1.8%. Moreover, the activity at 21 µM in data set [3] (setting [11]) was found to be 100 ± 6.2%. Besides, the activity at 218 µM in data set [3] (setting [12]) turned out to be 93 ± 2.5%. In addition, in data set [4], the viability at 48 h, 2.1 µM amounted to 104 ± 6.4%; the viability at 48 h, 21 µM was 96 ± 5.8%; the viability at 48 h, 218 µM worked out at 67 ± 1.5%. In data set [5], the viability at 48 h, 218 µM is 83 ± 4.2%. Further, in data set [5] (setting [6]), the viability at 48 h, 2.1 µM was determined as 102 ± 3% and the viability at 48 h, 21 µM was 97 ± 2.4%.

Regarding `O=C(CCC1CCCC1)Nc1ccc(NC(=O)CCC2CCCC2)c2c1C(=O)c1ccccc1C2=O` [VI19, 1,4-Bis(3-cyclopentanepropionamido)-9,10-anthracenedione], the melting point fell in the range of 166 to 167 °C. In the data set on human hepatoma G2 cells, this compound yielded an IC50 greater than 20 µM. Moreover, the IC50 with rat glioma C6 cells is greater than 20 µM. Besides, the IC50 in data set [1] is greater than 20 µM. Also, the SEAP/vibility in data set [2] (2.0 μM) is listed as 0.84. The compound also displayed an SEAP/vibility in data set [2] (20 μM) of 0.87. Also, the SEAP/vibility in data set [2] (205 μM) is on record as 0.87. Moreover, the activity at 2 µM in data set [2] (setting [13]) came to 90 ± 9.2%. In data set [2] (setting [14]), the activity at 20 µM amounted to 87 ± 5.5%. For the same compound, the activity at 205 µM in data set [2] (setting [15]) turned out to be 87 ± 8%. Further, the SEAP/vibility in data set [3] (2.0 μM) was found to be 1.06. In addition, the SEAP/vibility in data set [3] (20 μM) is listed as 1.09. Also, the SEAP/vibility in data set [3] (205 μM) is given as 1.15. In addition, the activity at 2 µM in data set [3] (setting [16]) worked out at 111 ± 9.4%. Besides, the activity at 20 µM in data set [3] (setting [17]) is 116 ± 8%. For the same compound, in data set [3] (setting [18]), the activity at 205 µM was 109 ± 9.2%. Further, in data set [4], the viability at 48 h, 2 µM came to 105 ± 2.1%; the viability at 48 h, 20 µM is 106 ± 4.7%; the viability at 48 h, 205 µM is 95 ± 1.3%. The viability at 48 h, 205 µM in data set [5] was determined as 100 ± 5.8%. Also, in data set [5] (setting [6]), the viability at 48 h, 2 µM was 107 ± 3.6% and the viability at 48 h, 20 µM came to 101 ± 4.7%.

For `O=C(Nc1ccc(NC(=O)c2cccs2)c2c1C(=O)c1ccccc1C2=O)c1cccs1` [VI22, 1,4-Bis(2-thiopheneamido)-9,10-anthracenedione], the melting point fell in the range of 321 to 322 °C. The compound also yielded an IC50 in the data set with human hepatoma G2 cells greater than 20 µM. Also, the IC50 with rat glioma C6 cells was greater than 20 µM. Besides, in data set [1], the IC50 was greater than 20 µM. This compound gave an SEAP/vibility in data set [2] (2.1 μM) of 0.80. The same compound gave an SEAP/vibility in data set [2] (21 μM) of 0.93. In data set [2] (218 μM), this compound gave an SEAP/vibility of 1.07. Besides, in data set [2] (setting [7]), the activity at 2.1 µM is 94 ± 20.2%. The activity at 21 µM in data set [2] (setting [8]) came out at 92 ± 17.4%. Besides, the activity at 218 µM in data set [2] (setting [9]) came to 90 ± 22.7%. The compound further yielded an SEAP/vibility in data set [3] (2.1 μM) of 0.93. The same compound displayed an SEAP/vibility in data set [3] (21 μM) of 0.98. This compound yielded an SEAP/vibility in data set [3] (218 μM) of 1.16. Moreover, the activity at 2.1 µM in data set [3] (setting [10]) amounted to 100 ± 3.1%. Besides, the activity at 21 µM in data set [3] (setting [11]) stood at 105 ± 5.9%. The activity at 218 µM in data set [3] (setting [12]) was found to be 97 ± 4.9%. Moreover, in data set [4], the viability at 48 h, 2.1 µM is 108 ± 3.7%; the viability at 48 h, 21 µM came out at 107 ± 8.5%; the viability at 48 h, 218 µM is 84 ± 4.3%. The viability at 48 h, 218 µM in data set [5] was 84 ± 6.9%. Besides, in data set [5] (setting [6]), the viability at 48 h, 2.1 µM worked out at 118 ± 10.6% and the viability at 48 h, 21 µM is 99 ± 8.2%.

`O=C(Cc1cccs1)Nc1ccc(NC(=O)Cc2cccs2)c2c1C(=O)c1ccccc1C2=O` [VI25, 1,4-Bis(2-thiopheneacetamido)-9,10-anthracenedione] had a melting point of 158 to 160 °C. This compound gave an IC50 in the data set with human hepatoma G2 cells greater than 20 µM. The same compound yielded a half-maximal inhibitory concentration (IC50) in the data set with rat glioma C6 cells greater than 20 µM. The compound further gave an IC50 in data set [1] of 15.5 µM. This compound displayed an SEAP/vibility in data set [2] (2.0 μM) of 0.45. This compound returned an SEAP/vibility in data set [2] (20 μM) of 0.38. Also, the SEAP/vibility in data set [2] (205 μM) was determined as 0.19. Moreover, the activity at 2 µM in data set [2] (setting [13]) stood at 53 ± 17.4%. In addition, in data set [2] (setting [14]), the activity at 20 µM was 40 ± 12.7%. Also, the activity at 205 µM in data set [2] (setting [15]) amounted to 14 ± 24.1%. Besides, the SEAP/vibility in data set [3] (2.0 μM) is 1.06. This compound had an SEAP/vibility in data set [3] (20 μM) of 1.39. Moreover, the SEAP/vibility in data set [3] (205 μM) is on record as 2.47. For the same compound, in data set [3] (setting [16]), the activity at 2 µM amounted to 111 ± 3.7%. Further, the activity at 20 µM in data set [3] (setting [17]) amounted to 115 ± 4.3%. The activity at 205 µM in data set [3] (setting [18]) was determined as 102 ± 5.5%. In data set [4], the viability at 48 h, 2 µM worked out at 104 ± 8%; the viability at 48 h, 20 µM was found to be 83 ± 6.6%; the viability at 48 h, 205 µM came to 41 ± 4%. Also, the viability at 48 h, 205 µM in data set [5] worked out at 76 ± 6.5%. In data set [5] (setting [6]), the viability at 48 h, 2 µM was found to be 116 ± 7.5% and the viability at 48 h, 20 µM is 105 ± 4.4%.
